Like-named read-outs stand apart in the source and are kept apart here. Blank lines part the entries; values can stand above or below the compound they belong to.
What was measured:
A549 cells [1] = assay: Resazurin cytotoxicity assay in A549 cells; format: cell-based, human; conditions: for fold more potent than imatinib / IC50: A549 cells; for fold more potent than imatinib: IC50 versus imatinib; for IC50: Homo sapiens, 48 h, resazurin, concentration-response curve; for SI WSS-1/A549: SI = IC50 (WSS-1)/IC50 (A549)
Experimental: (§1) The A549 cell line (CCL-185™; ATCC, Manassas, VA, USA), from human lung carcinoma epithelium, and the K562 cell line (Rio de Janeiro Cell Bank, BCRJ: 0126, Rio de Janeiro, RJ, Brazil), a human chronic myeloid cell line expressing the BCR-ABL1 protein, were grown in RPMI-1640 culture medium (Merck, Darmstadt, Hesse, Germany) supplemented with 10% heat-inactivated fetal bovine serum (FBS; Vitrocell, Campinas, SP, Brazil). WSS-1 [WS-1] (ATCC CRL-2029™) human […] cells were grown in high-glucose DMEM (Vitrocell) supplemented with 10% FBS (Vitrocell). All cell lines were maintained at 37 °C under 5% CO2, in a water jacket CO2 incubator (Forma Series II incubator, Thermo Fisher Scientific, Waltham, MA, USA).
(§2) Briefly, cells were seeded in 96-well microplates (2 × 10^4 cells/well for K562 cells and 5 × 10^4 cells/well for A549 and WSS-1 cells) and incubated with 10 µM of the test compounds for 48 h at 37 °C. A resazurin (Merck, Darmstadt, Hesse, Germany) solution (final concentration: 0.01 mg/mL) was added to each well before the end of the experiment, at 1 h before concluding for K562 cells, and 2 h before concluding for A549 and WSS-1 cells. Fluorescence readings (λex = 560 nm, […]) were carried out immediately after the addition of resazurin (t0) and at the end of the experiment (tn) with a FlexStation 3 Benchtop multimode microplate reader (Molecular Devices, San Jose, CA, USA). Resorufin fluorescence was calculated by subtracting the fluorescence measured at t0 from that at tn. Cell viability was expressed as percentages, considering the mean resorufin fluorescence of the control wells (cells incubated with only DMSO) to be 100%. Tests were performed in triplicate. The same assay was carried out to generate 8–10 points concentration-response curves (300 µM top compound concentration).
(§3) IC50 values were calculated by a four-parameter logistic curve function, using GraphPad Prism version 6.01 for Windows (GraphPad Software, San Diego, CA, USA, www.graphpad.com) (accessed on 29 December 2021).

WSS-1 cells = assay: Resazurin cytotoxicity assay in WSS-1 cells; format: cell-based; conditions: WSS-1 healthy human cells, 48 h
Experimental: as §1, §2, §3

K562 cells [2] = conditions: 150 μM, Figure 1; cited from earlier work
A549 cells [3] = conditions: 150 μM, cited from earlier work; for % viability reduction A549 cells: Figure 1
K562 cells [4] = assay: Resazurin cytotoxicity assay in K562 cells; conditions: for viability at 10 µM: read-out: percentage of viability
K562 cells [5] = test system: K562 cells; parameters: method as in PMID 30055465; conditions: cited from earlier work
K562 cells [6] = conditions: Figure 1; cited from earlier work

melting point: 235 to 237 °C
SMILES: Cc1ccc2c(c1)C(=O)C(=O)N2Cc1cn(-c2ccc(C)c(Nc3nccc(-c4cccnc4)n3)c2)nn1 [2b, 5-methyl-1-((1-(4-methyl-3-((4-(pyridin-3-yl)pyrimidin-2-yl)amino)phenyl)-1H-1,2,3-triazol-4 yl)methyl)indoline-2,3-dione]

melting point: 257 to 260 °C
SMILES: Cc1ccc(-n2cc(CN3C(=O)C(=O)c4cc(Cl)ccc43)nn2)cc1Nc1nccc(-c2cccnc2)n1 [2c, 5-chloro-1-((1-(4-methyl-3-((4-(pyridin-3-yl)pyrimidin-2-yl)amino)phenyl)-1H-1,2,3-triazol-4 yl)methyl)indoline-2,3-dione]

melting point: 267 to 270 °C
SMILES: Cc1ccc(-n2cc(CN3C(=O)C(=O)c4cc(Br)ccc43)nn2)cc1Nc1nccc(-c2cccnc2)n1 [2d, 5-bromo-1-((1-(4-methyl-3-((4-(pyridin-3-yl)pyrimidin-2-yl)amino)phenyl)-1H-1,2,3-triazol-4 yl)methyl)indoline-2,3-dione]

melting point: 251 to 253 °C
SMILES: Cc1ccc(-n2cc(CN3C(=O)C(=O)c4cc(F)ccc43)nn2)cc1Nc1nccc(-c2cccnc2)n1 [2e, 5-fluoro-1-((1-(4-methyl-3-((4-(pyridin-3-yl)pyrimidin-2-yl)amino)phenyl)-1H-1,2,3-triazol-4 yl)methyl)indoline-2,3-dione]

melting point: 223 to 224 °C
SMILES: Cc1ccc(-n2cc(CN3C(=O)C(F)(F)c4cc(Cl)ccc43)nn2)cc1Nc1nccc(-c2cccnc2)n1 [3c, 5-chloro-3,3-difluoro-1-((1-(4-methyl-3-((4-(pyridin-3-yl)pyrimidin-2-yl)amino)phenyl)-1H-1,2,3-triazol-4-yl)methyl)indoline-2-one]
fold more potent than imatinib (A549 cells [1]): approximately 10 fold
IC50 (A549 cells [1]): 6.4 µM
SI WSS-1/A549 (A549 cells [1]): 2.1
IC50 (WSS-1 cells): 13.5 µM

melting point: 218 to 219 °C
SMILES: Cc1ccc(-n2cc(CN3C(=O)C(F)(F)c4cc(Br)ccc43)nn2)cc1Nc1nccc(-c2cccnc2)n1 [3d, 5-bromo-3.3-difluoro-1-((1-(4-methyl-3-((4-(pyridin-3-yl)pyrimidin-2-yl)amino)phenyl)-1H-1,2,3-triazol-4-yl)methyl)indoline-2-one]
fold more potent than imatinib (A549 cells [1]): approximately 10 fold
IC50 (A549 cells [1]): 7.3 µM
SI WSS-1/A549 (A549 cells [1]): 2.5
IC50 (WSS-1 cells): 18.6 µM

SMILES: Cc1ccc(NC(=O)c2ccc(CN3CCN(C)CC3)cc2)cc1Nc1nccc(-c2cccnc2)n1 [Imatinib, imatinib]
% viability reduction K562 cells (K562 cells [2]): 61.7%
% viability reduction A549 cells (A549 cells [3]): 61.2%
viability at 10 µM (K562 cells [4]; Homo sapiens, K562, 48 h): 30.7%

melting point: 237 to 239 °C
SMILES: Cc1ccc(-n2cc(CN3C(=O)C(=O)c4ccccc43)nn2)cc1Nc1nccc(-c2cccnc2)n1 [compound 2a, 1-((1-(4-methyl-3-((4-(pyridin-3-yl)pyrimidin-2-yl)amino)phenyl)-1H-1,2,3-triazol-4-yl)methyl)indoline-2,3-dione]

melting point: 222 °C
SMILES: Cc1ccc(-n2cc(CN3C(=O)C(F)(F)c4ccccc43)nn2)cc1Nc1nccc(-c2cccnc2)n1 [compound 3a, 3.3-difluoro-1-((1-(4-methyl-3-((4-(pyridin-3-yl)pyrimidin-2-yl)amino)phenyl)-1H-1,2,3-triazole-4-yl)methyl)indoline-2-one]
fold more potent than imatinib (A549 cells [1]): approximately 10 fold
IC50 (A549 cells [1]): 7.2 µM
SI WSS-1/A549 (A549 cells [1]): 1.6
IC50 (WSS-1 cells): 11.6 µM

melting point: 102 to 104 °C
SMILES: Cc1ccc2c(c1)C(F)(F)C(=O)N2Cc1cn(-c2ccc(C)c(Nc3nccc(-c4cccnc4)n3)c2)nn1 [compound 3b, 3,3-difluoro-5-methyl-1-((1-(4-methyl-3-((4-(pyridin-3-yl)pyrimidin-2-yl)amino)phenyl)-1H-1,2,3-triazol-4-yl)methyl)indolin-2-one]
IC50 (WSS-1 cells): 69.3 µM
IC50 (K562 cells [4]; Homo sapiens, K562, 48 h, read-out: IC50 K562): 35.8 µM
viability at 10 µM (K562 cells [4]; Homo sapiens, K562, 48 h): 57.5%
SI WSS-1/K562 (K562 cells [4]; SI = IC50 (WSS-1)/IC50 (K562)): 1.9

SMILES: COc1ccc(CN2C(=O)C(=O)c3cc(-c4ccc(OC)cc4)ccc32)cc1 [compound 4]
IC50 (K562 cells [5]): 0.03 µM

SMILES: Cc1ccc(-c2cn(-c3ccc(CN4CCN(C)CC4)c(C(F)(F)F)c3)nn2)cc1Nc1nccc(-c2cccnc2)n1 [compound 7]
IC50 (K562 cells [6]): 0.03 µM

SMILES: CC(=O)NCC(=O)Nc1ccc(C)c(Nc2nccc(-c3cccnc3)n2)c1 [compound 8]
% viability reduction K562 cells (K562 cells [2]): 66.3%
% viability reduction A549 cells (A549 cells [3]): 61.5%
cell viability (A549 cells [3]): 38.5%

SMILES: CCc1c2c(nc3ccc(OC(=O)N4CCC(N5CCCCC5)CC4)cc13)-c1cc3c(c(=O)n1C2)COC(=O)[C@]3(O)CC [irinotecan]
IC50 (K562 cells [5]): 0.07 µM
